# Measurements: publication PMC7958136, “ANT1 Activation and Inhibition Patterns Support the Fatty Acid Cycling Mechanism for Proton Transport” (International Journal of Molecular Sciences, 2021)
# Target: T1, recombinant murine ANT1 (mANT1; adenine nucleotide translocase 1) (Mus musculus, UniProt P48962)
# T1 construct: gene Slc25a4
# T1 sequence (P48962 2-298): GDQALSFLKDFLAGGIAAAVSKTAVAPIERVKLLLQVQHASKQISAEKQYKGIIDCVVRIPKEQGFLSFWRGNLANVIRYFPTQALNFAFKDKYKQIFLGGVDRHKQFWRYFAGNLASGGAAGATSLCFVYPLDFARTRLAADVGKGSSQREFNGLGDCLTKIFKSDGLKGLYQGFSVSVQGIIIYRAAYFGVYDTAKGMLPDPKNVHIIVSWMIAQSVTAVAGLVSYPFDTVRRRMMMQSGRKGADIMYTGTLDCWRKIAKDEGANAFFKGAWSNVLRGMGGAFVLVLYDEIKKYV
# Assay: inhibition of fatty-acid-activated proton conductance, planar lipid bilayer with reconstituted ANT1
# Type: biochemical
# Conditions: not given
row,SMILES,EC50 [µM]
1,CO[C@H](C/C=C\C=C\CC/C=C/C[C@H](C)/C=C/C(=C\C(=O)O)CC(=O)O)/C(C)=C\C=C(/C)C(=O)O [bongkrekic acid],32.3 ± 11.4

# Same assay, conditions: read-out: EC50
row,SMILES,EC50 [µM]
1,Nc1ncnc2c1ncn2[C@@H]1O[C@H](COP(=O)(O)OP(=O)(O)O)[C@@H](O)[C@H]1O [ADP],1310 ± 537
2,Nc1ncnc2c1ncn2[C@@H]1O[C@H](COP(=O)(O)O)[C@@H](O)[C@H]1O [AMP],2660 ± 817
3,Nc1ncnc2c1ncn2[C@@H]1O[C@H](COP(=O)(O)OP(=O)(O)OP(=O)(O)O)[C@@H](O)[C@H]1O [ATP],250 ± 34
4,Nc1nc2c(ncn2[C@@H]2O[C@H](COP(=O)(O)OP(=O)(O)O)[C@@H](O)[C@H]2O)c(=O)[nH]1 [GDP],5410 ± 2010
5,Nc1nc2c(ncn2[C@@H]2O[C@H](COP(=O)(O)OP(=O)(O)OP(=O)(O)O)[C@@H](O)[C@H]2O)c(=O)[nH]1 [GTP],3320 ± 93
